Measured values as given in patent US7417072B2, “Blockade of Pin1 prevents cytokine production by activated immune cells” (Wisconsin Alumni Research Foundation, priority 2005, dated 2008).
Residues, ends and D or L forms follow the SMILES beside them. *: point of attachment. Cbz = O=C(OCc1ccccc1)*

What was measured:
eosinophils (Eos) = experiment: Eosinophil survival, cell viability at day 4; type: cell-based, human; conditions: for Eos survival: HA-activated Eos
Procedure: In FIG. 2C, cells were untreated (−/− lanes on left) or incubated for 4 h with HA atone, HA plus varying concentrations (160 or 320 nM) of TAT-conjugated green fluorescent protein (TAT-GFP) or TAT-conjugated Pin1 domains (TAT-wwPin1) and analyzed as in FIG. 2A. In FIG. 2D, control (−/−), HA (100 μg/ml), rhGM-CSF (100 pg/ml), HA or GM-CSF plus TAT-GFP (160 nM) or HA or GM-CSF plus TAT-wwPin1 (160 nM) treated Eos were cultured for 4 days prior to cell viability assay as disclosed in Example 2 below.
To this end, peripheral blood was obtained by venipuncture from patients who had allergic rhinitis or asthma; patients were not symptomatic at the time blood was obtained. Peripheral blood eosinophils (Eos) were purified using a negative immunomagnetic procedure as described in Esnault and Malter (2001, J. Immunol. 166:4658-96). After isolation, Eos were maintained in vitro in RPMI 1640 medium (Gibco Life Technologies, Grand Island, N.Y.) with 10% fetal calf serum (Gibco Life Technologies, Grand Island, N.Y.) and 50 μg/ml gentamicin (Gibco Life Technologies, Grand Island, N.Y.) at 37° C. in 5% CO2, and were metabolically labeled and activated by treatment under these culture conditions with 100 μg/ml HA (˜5 hours total, see below).
The mechanism of Eos death was evaluated by western blotting.

GM-CSF mRNA = GM-CSF mRNA levels in eosinophils, RT-PCR/Southern blot; type: cell-based, human
Procedure: In FIG. 2A, Eos were treated as in FIG. 1A for 4 h prior to lysis with TriReagent and RT-PCR/Southern blot analysis for GM-CSF mRNA. Gel electrophoresis of GM-CSF products and control β-actin RT-PCR products are shown. In FIG. 2B, cells were treated with HA for 4 h and then juglone (1 μM) was added at the indicated times before harvest and RT-PCR analysis, where GM-CSF or β-actin mRNA expression were analyzed as above. In FIG. 2B, “C,” refers to PCR reaction mixtures without added cDNA. In FIG. 2C, cells were untreated (−/− lanes on left) or incubated for 4 h with HA atone, HA plus varying concentrations (160 or 320 nM) of TAT-conjugated green fluorescent protein (TAT-GFP) or TAT-conjugated Pin1 domains (TAT-wwPin1) and analyzed as in FIG. 2A. […] In FIG. 2E, eosinophils were treated for 4 h with HA or HA plus juglone (1 μM, 1 h prior to harvest) prior to the addition of actinomycin D (5 μg/ml) and cells harvested at the indicated times for RT-PCR/Southern blot analysis. In these experiments, PCR was performed for 30 (HA-treated cells) or 33 (HA plus juglone-treated cells) cycles, respectively.
In FIG. 3A, Eos were untreated (−/−), treated with HA or HA plus juglone (1 μM) for 4 h. […] In FIG. 3C, cells were untreated (−/−/−) treated for 4 h with HA alone, HA plus juglone (10 min before harvest) or HA plus 20 μM or 100 μM MG132 (4 h) plus juglone (10 min before harvest), Cell lysates were immunoblotted with the antibodies shown. […] In FIG. 3D, Eos were treated as described for FIG. 3C except that only 20 μM MG132 was used. Cells were lysed with TriReagent for total RNA isolation prior to RT-PCR/Southern blot analysis.
To characterize the mechanisms connecting hyaluronic acid (HA) activation to GM-CSF expression and eosinophil survival, GM-CSF mRNA decay was measured.
In order to assess this possibility, GM-CSF mRNA levels were measured by RT/PCR-Southern blot hybridization experiments.

Pin1 and AUF1 = Pin1 and AUF1 protein levels in eosinophils, immunoprecipitation/immunoblot; type: cell-based, human; conditions: MG132 4 h, juglone 10 min before harvest
Procedure: In FIG. 3A, Eos were untreated (−/−), treated with HA or HA plus juglone (1 μM) for 4 h. Cell lysates were immunoprecipitated with anti-Pin1 antibody followed by immunoblotting with anti-AUF1 or anti-Pin1 antibodies. Nonimmune IgG was used as a negative control while HeLa cell extracts were used as a positive control (“C”). In FIG. 3B, immunoblots of cytoplasmic protein from Eos treated for 4 h with HA or co-treated with juglone (1 μM) for the indicated times before harvest. In FIG. 3C, cells were untreated (−/−/−) treated for 4 h with HA alone, HA plus juglone (10 min before harvest) or HA plus 20 μM or 100 μM MG132 (4 h) plus juglone (10 min before harvest), Cell lysates were immunoblotted with the antibodies shown. Lane “C” is a HeLa cell lysate used as a positive control. In FIG. 3D, Eos were treated as described for FIG. 3C except that only 20 μM MG132 was used.
The effects of HA and juglone treatment on the interactions between AUF1 and Pin1 were then examined.
To address this possibility, Eos were exposed to the proteasome inhibitor MG132 (4 h) (Sigma) and juglone (10 min before harvest) and lysates immunoblotted.

p45 and p40 AUF1 = experiment: Anti-phosphoserine immunoblot of eosinophil cytoplasmic extracts; type: cell-based, human; conditions: 50 μM added 30 min before harvest
Procedure: Cells were untreated (−/−/−), treated with HA alone (4 h), HA (4 h) plus juglone (1 μM added 10 min before harvest) or HA plus Erk inhibitor PD98059 (PD) (50 μM added 30 min before harvest). Cytoplasmic extracts were immunoblotted with anti-phosphoserine, anti-AUF1 or anti-Pin1 antibody as shown.
As the association of Pin1 and AUF1 was unaffected by HA (FIG. 2A) despite the loss of GM-CSF mRNA from the protein complex (FIGS. 4A & 4B) it was hypothesized that either AUF1 and/or Pin1 was modified by HA mediated signaling. Phorbol esters trigger the dephosphorylation of Ser^83 and Ser^87 of p40 AUF1 was concomitant with the stabilization of IL-1β and TNF-α mRNAs (Wilson et al. 2003, J. Biol. Chem. 278:33029-33038). Therefore, cytoplasmic extracts from control or HA-treated Eos were immunoblotted with anti-phosphoserine, anti-AUF1 or anti-Pin1 antibodies.

[1] = system: peripheral blood mononuclear cells (PBMC); experiment: Cytokine mRNA accumulation in activated PBMC, northern blot / qPCR; type: cell-based, human; conditions: mitogen stimulated, 4 h, juglone 1 μM
Procedure: PBMCs were isolated from healthy donors by Percoll® gradient centrifugation of heparinized whole blood. Cells were cultured in RPMI 1640 media supplemented with 10% fetal calf serum (FCS) at 1×10^6 cells/ml prior to the addition of PMA (20 ng/ml) and PHA (5 ug/ml) (P/P) or PMA, PHA and juglone (1 uM) (P/P/J); “R” designates the control lane without addition of additional substances. After 4 h, cells were lysed and 10 ug of recovered RNA northern blotted and hybridized with probes shown along the left side of the Figure. “A” and “B” refer to results with 2 different donors.
After 4 h, RNA was isolated from the cells and used for quantitative PCR (qPCR) for the cytokine mRNAs shown. Data are presented as % inhibition in samples with juglone.
Thus peripheral blood mononuclear cells (˜70% T cells, 20% B cells, 5-10% macrophages/monocytes, obtained by phlebotomy of normal donors) were incubated with optimal concentrations of mitogens (phorbol ester (20 ng/ml), and PHA (40 ug/ml), both from Sigma) and cytokine in RNA levels were measured by northern blot or real time RT/PCR (qPCR) and cytokine secretion by ELISA. […] IL-2, IL-8, TNFα, IFNγ and GM-CSF mRNAs were evaluated first, since these cytokines all share 3′ UTR AU-rich elements with GM-CSF.

purified T cells = experiment: Cytokine mRNA in purified T cells activated with anti-CD3/anti-CD28, qPCR; type: cell-based, human; conditions: anti-CD3/anti-CD28, juglone 1 μM added along with antibody, 4 hours
Procedure: Purified T cells were prepared by negative selection of PBMC (T cells>98% pure based on flow cytometry) and activated with a combination of anti-CD3 and anti-CD28 antibodies. Juglone was added at 0.1 or 1 μM as shown along with the antibodies or at various times (as shown) at 1 μM after the antibodies.
Purified T cells were prepared by negative selection of PBMC (T cells>98% pure based on flow cytometry) and activated with a combination of anti-CD3 and anti-CD28 antibodies. Juglone was added at 0.1 or 1 μM as shown along with the antibodies. After 4 hours total incubation time, cells were lysed and mRNA used for RT-qPCR for the cytokine mRNAs shown “−” refers to control cells activated but not exposed to juglone.
As PBMC are heterogeneous, this cell population was fractionated into T cells by negative selection (as described in Sedgwick et al., 2003, Am J Respir Cell Mol Biol. 29:702-9). […] These were then activated with anti-CD3 and anti-CD28 antibodies (obtained from Santa Cruz Biotech), and the effects of Pin1 blockade on cytokine gene expression assessed by qPCR. […] Juglone (1 μM) added along with antibody reduced GM-CSF mRNA by between 80-95%.

rat splenocytes [2] = experiment: IFN-γ and IL-2 secretion by activated splenocytes, ELISA; type: cell-based; conditions: I/P stimulated spleen cells
rat splenocytes [3] = experiment: Splenocyte viability, propidium iodide flow cytometry; type: cell-based; conditions: 24 hours
Procedure: In FIG. 14A, mRNAs for IFN-γ, IL-2, TNF-α, CXCL-10 and TGF-β were analyzed in rat splenocytes by reverse transcription, qPCR. The ionomycin/PMA stimulated sample was normalized to 100 and others expressed as a % of that value. […] Cells were stained with propidium iodide and analyzed by flow cytometry. The results shown are representative of 3 experiments. […] The data are averages±SEM of 3 independent experiments using splenocytes of untreated healthy animals.
Therefore, Pin1 blockade suppressed proliferation as well as the elaboration of proinflammatory cytokines by activated rat splenocytes.

[4] = system: cytokine expression and immune cells of transplant recipients; experiment: Immunologic analysis of lung transplant recipients (blood, spleen, BAL, lung, mediastinal lymph nodes)
Procedure: Splenocytes (2000) from control or juglone-treated transplant recipients were activated with ionomycin (1 μM) and PMA (20 ng/ml) for 3 days prior to addition of anti-IL-2 or IFN gamma antibodies and color development and counting.
Spleens were processed 8 days after transplantation from untreated or juglone-treated rats for mRNA isolation and RT-qPCR for IL-2, IFN or TNF alpha. Juglone treated mRNA levels were set to 100% in these analyses.
Data are shown as the average±SEM (n=4 rats) of 3 experiments 7 days after transplantation.
The values in untreated controls were normalized to 100% and data shown represent % change in juglone treated samples. The data shown are an average±SEM (n=4 rats) of 4 experiments. * denotes p<0.05 from control samples. […] Values are normalized to control (100%).
Cytokine elaboration was measured by control, activated or juglone treated activated splenocytes as follows. IFNγ secretion by splenocytes was evaluated by ELISPOT (R&D Systems, Minneapolis, Minn.) as described by the manufacturer. Triplicates of serial dilutions of cells were cultured with PMA (10 ng/ml) plus iononycin (1 μM) for 48 hours. The concentration of IFN-γ and IL-2 in the BAL fluid was determined using an ELISA kit (R&D Systems).
Next, immunologic changes between control and juglone treated transplant recipients were analyzed. […] Splenocytes harvested from control versus untreated animals (8 days after transplant) were stimulated with optimal concentrations of PMA (20 ng/ml) and ionomycin (1 μM) and analyzed by Elispot for IL-2 and IFNγ expression.
Levels of IFN-γ and IL-2 were as measured, as described above, in the animals one week after transplantation.
Cytokine mRNAs from splenocytes in juglone treated animals were also examined.

C=CC[C@@H]1/C=C(\C)C[C@H](C)C[C@H](OC)[C@H]2O[C@@](O)(C(=O)C(=O)N3CCCC[C@H]3C(=O)O[C@H](/C(C)=C/[C@@H]3CC[C@@H](O)[C@H](OC)C3)[C@H](C)[C@@H](O)CC1=O)[C@H](C)C[C@@H]2OC [FK506] was tested, and the “Effect on HA-enhanced Eos survival” value (eosinophils (Eos); HA 100 μg/ml, TAT proteins 160 nM) was “no effect”.
With CC(C)C[C@@H](C=O)NC(=O)[C@H](CC(C)C)NC(=O)[C@H](CC(C)C)NC(=O)OCc1ccccc1 [MG132] (Cbz-Leu-Leu-Leu-aldehyde) the “GM-CSF mRNA in Eos treated with MG132 alone” value (GM-CSF mRNA) was “no observable effect”, the “GM-CSF mRNA in Eos treated with HA, MG132 and juglone” value (GM-CSF mRNA; 20 μM MG132 4 h, juglone 10 min before harvest) was “antagonized juglone-induced decreases of GM-CSF mRNA” and the “Juglone-induced Pin1 degradation” value (Pin1 and AUF1) was “only partially prevented Pin1 degradation”. The “Juglone-induced p45, p42 and p40 AUF1 degradation” value (Pin1 and AUF1) was “completely blocked”.
For COc1cccc(-c2cc(=O)c3ccccc3o2)c1N [PD98059], the “GM-CSF mRNA levels in HA-treated Eos” value (GM-CSF mRNA; HA 4 h, CsA 1.6 μM or 16 μM, TAT proteins 160 or 320 nM) was “failed to accumulate”, the “Time to effect on GM-CSF mRNA after addition of the inhibitor” value (GM-CSF mRNA; HA-activated Eos) was 10 to 30 min and the “HA-increased phosphorylation of p45 and p40 AUF1” value (p45 and p40 AUF1) was “partially antagonized”.
In the case of O=C1C=CC(=O)c2c(O)cccc21 [juglone], the Eos survival (eosinophils (Eos); 0.1 μM) is reported as 5%, the Eos survival (eosinophils (Eos); 1.0 μM) is reported as 5% and the “Suppression of cytokine mRNAs by qPCR” value [1] is reported as 65-90%. For the same compound, the “Reduction of GM-CSF mRNA in purified T cells” value (purified T cells) was 80-95%, the “Concentration of maximal effect on cytokine secretion” value (rat splenocytes [2]) was 1 µM and the “Apoptosis in I/P versus I/P/juglone treated splenocytes” value (rat splenocytes [3]) was “equivalent levels of apoptosis”. For the same compound, the “Reduction in number of splenocytes expressing IL-2 and IFNγ by Elispot” value ([4]; 8 days after transplant, PMA 20 ng/ml and ionomycin 1 μM) was 60-70%, the “Absolute counts and ratios of peripheral blood CD4+, CD8+ cells and γ/δ lymphocytes” value ([4]; after 1 week of juglone) was “largely unaffected” and the “Fewer total BAL cells than untreated controls” value ([4]; juglone 1 mg/kg) was 50%. The “IL-2 and IFN-gamma mRNA in lungs compared with no treatment controls” value ([4]; juglone 1 mg/kg) was “about 35%”.
